Results reported in patent US5134150A, “Inhibition of the 5-lipoxygenase pathway” (priority 1989, dated 1992).
Like-named read-outs stand apart in the source and are kept apart here. One block for each molecule: values may come before it.

What was measured:
[1] = tested on: Arachidonic Acid-Induced Inflammation of the Mouse Ear; assay: Arachidonic acid-induced mouse ear inflammation; type: in vivo, mouse (male Balb/c); details: for inhibition in vivo at 50 mg/kg: Mus musculus, 1 h, Table 7A, read-out: % Inhibition of Ear Swelling
Description: (§1) In the following Examples where mice were used, they were male Balb/c mice (20-28 g), and where rats were used, they were male Lewis rats (180-210 g). All mice and rats were obtained from Charles River Breeding Laboratories, Kingston, N.Y. Within a single experiment, mice and rats were sex and age matched.
(§2) The compounds of Formula (I) were used either as the free base or in the appropriate salt form. Levamisole was used as the hydrochloride salt. The compounds were homogenized in 0.5% tragacanth. Compounds were administered by gavage at the indicated dose in a final volume of 10 ml/kg. Nordihydroguaiaretic acid (NDGA) was solubilized in dimethylacetamide and diluted with olive oil for subcutaneous administration.
Arachidonic acid in acetone ([…]) was applied to the inner surface of the left ear. The thickness of both ears was then measured with a dial micrometer one hour after treatment, and the data were expressed as the change in thickness (10^-3 cm) between treated and untreated ears.
Test compounds were given orally in 0.5% tragacanth at the times indicated in the text prior to the topical application of arachidonic acid.
Parenteral administration of compound was accomplished by subcutaneous injection of solution as indicated.

[2] = tested on: LTC4 production by human monocytes; assay: LTC4 production by human monocytes; type: cell-based; set-up: key to IC50, LTC4 production: NS = not significant; details: A23187-stimulated human monocytes; for IC50: Monocyte
Experimental: The compounds of Formula (I) were evaluated for their ability to inhibit the production of LTC4 by human monocytes according to the following assay. Human monocytes were prepared from whole blood supplied by the American Red Cross. The blood was fractinated by a two-step procedure employing sedimentation on Ficoll followed by sedimentation on Percoll. […] Non-adherent cells were removed by washing. […] When drugs were evaluated, they were added to the cells 30 minutes prior to the A23187. Supernatants were collected, […] by centrifugation and stored frozed at -20° C. until assay. The LTC4 content was determined by using a New England Nuclear Leukotriene C-4 (^3 H) RIA Kit as per instructions.

[3] = tested on: 5-lipoxygenase and LTA4 synthetase; assay: Di-HETE / LTB4 production by high speed supernatant of RBL-1 cells; type: biochemical; details: RBL-1 high speed supernatant; Table 9A; read-out: 5-LO IC50 (LTB4 production)
Experimental: (§3) For in vitro experiments, compounds were dissolved at appropriate concentrations in ethanol or DMSO (dimethylsulfoxide) (final concentration≤1.0%) and then diluted to final concentrations using the buffers indicated in the text.
(§4) The activities of these enzymes in extracts of RBL-1 cells were assayed using the method of Jakschik and Lee, Nature, 287, 51-52 (1980). RBL-1 cells were obtained from the American Type Culture Collection (#CRL 1378) and were grown at 37° C. (5% CO2 in air) in spinner culture in MEM supplemented with 10% heat inactivated fetal calf serum. Harvested cells were washed with 50 mM sodium phosphate buffer, pH 7.0, containing 1 mM EDTA and 0.1% gelatin, resuspended in fresh buffer (5×10^7 cells/ml) and disrupted by nitrogen cavitation using the Parr bomb at 750 psi for 10 min. The broken cell extract was then centrifuged at 10,000× g for 20 minutes (min) and the supernatant centrifuged at 100,000 xIg for 60 min. Aliquots (0.25 mls) of the supernatant were preincubated with or without drugs for 10 min, after which 10 μl CaCl2 (50 mM) was added and the reaction was initiated with 2.5 μl of 2.5 mM arachidonic acid-1-^14 C (final concentration was 25 μM; specific activity 20,000 dpm/nmole). After incubation for 3 min at 37° C., the reaction was terminated by addition of 2 volumes (0.5 ml) ice cold acetone and the sample was allowed to deproteinize on ice for 10 min prior to centrifugation at 1,000× g for 10 min. The deproteinized supernatant was adjusted to pH 3.5 with 2N formic acid and extracted with 2 volumes of ice cold ethyl acetate. The extracted samples were dried under argon, redissolved in ethyl acetate and applied to Whatman LK5D thin layer chromatography (TLC) plates which were developed using the A-9 solvent system [organic phase of ethyl acetate: 2,2,5-trimethylpentane:acetic acid: water (110:50:20:10)] described by Hamberg and Samuelsson, J. Biol. Chem., 241, 257-263 (1966). Arachidonic acid, 5-HETE, LTB4 and PGD2 were quantified with a Berthold LB 2832 autoscanner.
(§5) The 5-lipoxygenase and LTA4 synthetase activities were further studied under the following conditions. An additional centrifugation of the RBL-1 supernatant was run at 100,000× g for 60 min, to remove the particulate cyclooxygenase activity. Sample incubation was done under conditions similar to those described above, i.e., 2 mM CaCl2 and […] arachidonic acid-1-^14 C, however, with an incubation time of 5 min at 5° C. Under these conditions, only the 5-lipoxygenase pathway metabolites were detectable. The 5-HETE and di-HETEs were formed at a linear rate, and substantial amounts of the arachidonic acid-1-^14 C substrate were utilized.

[4] = tested on: Experimental Allergic Encephalomyelitis Induced in Female Lewis Rats; assay: Experimental allergic encephalomyelitis, hindleg paralysis; type: in vivo, rat (female Lewis); details: 0.3 mg/kg/day, p.o.
Experimental: EAE is induced in Female (Charles River) Lewis rats by a single intradermal injection of 0.1 ml of an encephalitogenic emulsion consisting of equial parts of a 50% w/v homogenate of guinea pig spinal cord and mid-brain in 0.5% aqueous phenol and Freund's complete adjuvant (4 mg/ml killed, dried M. butyricum) into a hindpaw (left) footpad. […] Any animal which becomes paralyzed during the course of the experiment is considered to have developed EAE whether or not the paralysis is permanent. Test compounds are administered daily beginning on the day of injection, for 19 days, exclusive of days 5, 6 12 and 13. Drug activity is determined by comparing the indicidence of EAE (paralysis) of the treated group with a control (vehicle) group. The level of significant difference between the treated groups and control groups is determined by a Chi-square test using a 2×2 contingency table. Body weight changes from day 0 are also statistically compared to the control group using a Student "t" test.

lipoxygenase = details: in vitro; cited from earlier work
psoriasis = details: in vivo; cited from earlier work
5-Lipoxygenase = target: T1, 5-Lipoxygenase (Rattus norvegicus, UniProt P12527); assay: 5-HETE production by high speed supernatant of RBL-1 cells; type: biochemical; details: for IC50: RBL-1 high speed supernatant, Table 8A
T1 construct: The activities of these enzymes in extracts of RBL-1 cells were assayed; host or cells: RBL-1
T1 sequence (P12527 1-673): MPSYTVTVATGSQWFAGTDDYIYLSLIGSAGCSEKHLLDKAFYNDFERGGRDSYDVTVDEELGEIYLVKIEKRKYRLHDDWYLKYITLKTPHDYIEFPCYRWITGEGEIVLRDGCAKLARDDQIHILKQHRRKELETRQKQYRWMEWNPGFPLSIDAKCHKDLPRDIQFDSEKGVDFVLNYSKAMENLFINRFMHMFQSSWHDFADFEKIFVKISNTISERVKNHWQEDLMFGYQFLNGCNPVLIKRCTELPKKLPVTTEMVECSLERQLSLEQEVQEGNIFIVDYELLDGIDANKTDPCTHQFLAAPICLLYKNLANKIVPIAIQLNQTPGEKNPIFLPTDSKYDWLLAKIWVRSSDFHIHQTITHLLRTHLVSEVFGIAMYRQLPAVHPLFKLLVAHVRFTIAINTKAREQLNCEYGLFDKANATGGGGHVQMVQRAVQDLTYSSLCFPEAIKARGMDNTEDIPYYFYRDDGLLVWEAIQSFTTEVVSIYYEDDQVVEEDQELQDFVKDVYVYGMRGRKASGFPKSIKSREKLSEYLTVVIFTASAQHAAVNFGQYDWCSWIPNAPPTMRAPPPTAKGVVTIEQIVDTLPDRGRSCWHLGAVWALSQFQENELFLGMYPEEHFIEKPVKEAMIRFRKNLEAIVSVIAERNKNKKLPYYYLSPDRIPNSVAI
Experimental: as §3, §4, §5

rheumatoid arthritis = details: preliminary observation; cited from earlier work
[5] = tested on: LTB4 and 5-HETE production; details: in vitro; cited from earlier work
[6] = tested on: Infiltration of Polymorphonuclear Leukocytes into Sites of Carrageenan-Induced Inflammation; assay: Mouse carrageenan peritonitis (PMN infiltration); type: in vivo, mouse (male Balb/c); details: carrageenan peritonitis, mice
Description: as §1, §2
Mice were pretreated with either the test compound or vehicle one hour before the intraperitoneal injection of a 1.0% carrageenan suspension in saline (0.2 ml/mouse). Mice were sacrificed by cervical dislocation two hours after injection, and 3.0 ml of phosphate buffered saline, without Ca^++ or Mg^++, was injected into the peritoneum. Following massage, a 2.0 ml aliquot of the lavage fluid was removed, and the total cell count determined on a Coulter counter and differential cell count determined by microscopic examination of Giesma-stained slides.

[7] = tested on: area of infarction following coronary occlusion; details: dogs; cited from earlier work
[8] = 25 mg/kg, p.o., pretreated at 2 hrs

Structure (SMILES): CN(Cc1cnc2nc(N)nc(N)c2n1)c1ccc(C(=O)N[C@@H](CCC(=O)O)C(=O)O)cc1 [Methotrexate]
Hindleg paralysis - cumulative incidence, day 9 to 13 [4]: 0/11
Hindleg paralysis - cumulative incidence, day 14 to 18 [4]: 0/11

Structure (SMILES): O=S1(=O)CCn2c1nc(-c1ccc(F)cc1)c2-c1ccncc1 [Compound 29, 5-(4-pyridyl)-6-(4-fluorophenyl)-2,3-dihydroimidazo[2,1-b]thiazole-S-dioxide]
inhibition in vivo at 50 mg/kg ([1]; po, 50 mg/kg p.o.): 67%
IC50 [2]: 0.5 µM
IC50 [3]: > 100 µM

Structure (SMILES): CC(C(=O)O)c1ccc2oc(-c3ccc(Cl)cc3)nc2c1 (stereo not drawn) [Benoxaprofen]
Lipoxygenase inhibitory activity, in words (lipoxygenase): in vitro lipoxygenase inhibitory activity
Effect on psoriasis, in words (psoriasis): promising effect

Structure (SMILES): FC(F)(F)c1ccc(-c2nc3n(c2-c2ccc(C(F)(F)F)cc2)CCS3)cc1 [Compound 27]
IC50 (5-Lipoxygenase): 28 µM

Structure (SMILES): O=C(O)c1cc(/N=N/c2ccc(S(=O)(=O)Nc3ccccn3)cc2)ccc1O [Sulfasalazine]
Efficacy in rheumatoid arthritic patients, in words (rheumatoid arthritis): efficacy, including remission
Inhibition of LTB4 and 5-HETE production, in words [5]: inhibit LTB4

Structure (SMILES): C[C@@H]1C[C@H]2[C@@H]3CCC4=CC(=O)C=C[C@]4(C)[C@@]3(F)[C@@H](O)C[C@]2(C)[C@@]1(O)C(=O)CO [Dexamethasone, reference compound]
% Change (ear thickness) [1, 8]: -35%
Increase in Ear Thickness at 1 Hour [1, 8]: 18.2 ± 4.1 × 10-3 cm
Mouse ear edema, result in words ([1]; mouse, in vivo): only moderately effective
PMN infiltration, result in words [6]: effective

Structure (SMILES): NC1=NN(c2cccc(C(F)(F)F)c2)CC1 [BW755-C]
Area of infarction, in words [7]: reduced

Structure (SMILES): CCNc1ccc(-c2nc3n(c2-c2ccc(NCC)cc2)CCS3)cc1 [Compound 17]
inhibition in vivo at 50 mg/kg ([1]; 50 mg/kg s.c. or i.p.): 38%
IC50 [2]: 1.2 µM
IC50 [3]: 0.1 µM

Continued, in another order:

IC50 [2]: 0.5 µM
IC50 [3]: 1000 µM
Structure (SMILES): [O-][S+]1CCn2c1nc(-c1ccc(F)cc1)c2-c1ccncc1 (stereo not drawn) [Compound 28, 5-(4-pyridyl)-6-(4-fluorophenyl)-2,3-dihydroimidazo[2,1-b]thiazole-S-oxide]
inhibition in vivo at 50 mg/kg ([1]; 50 mg/kg s.c. or i.p.): 69%

IC50 [2]: 9.9 µM
IC50 [3]: 1.9 µM
Structure (SMILES): COc1ccc(-c2nc3n(c2-c2ccncc2)CCS3)cc1 [Compound 18]
inhibition in vivo at 50 mg/kg ([1]; po, 50 mg/kg p.o.): 40%

IC50, LTC4 production [2]: NS
IC50 [3]: 17 µM
Structure (SMILES): Fc1ccc(-c2c(-c3ccncc3)nc3n2CCS3)cc1 [Compound 12]
inhibition in vivo at 50 mg/kg ([1]; 50 mg/kg s.c. or i.p.): 58%

IC50 (5-Lipoxygenase): > 10 µM
inhibition at 10 µM (5-Lipoxygenase; read-out: inhibition of 5-HETE at 10 μM, 10 μM, Table 8A footnote): 46%
IC50 [3]: > 10 µM
Structure (SMILES): Fc1ccc(-c2nc3n(c2-c2ccc(F)cc2)CCS3)cc1 [Compound 26]
